From ChEMBL document CHEMBL4433238, “2,4,5-Tris(alkoxyaryl)imidazoline derivatives as potent scaffold for novel p53-MDM2 interaction inhibitors: Design, synthesis, and biological evaluation” (Bioorg Med Chem Lett, 2019)
Activity calls are given as the source filed them. No cut-off for these calls is given here.

Legend:
[1] = system: A549; experiment: Cytotoxicity against human A549 cells assessed as reduction in cell viability after 72 hrs by MTT assay; type: functional, cell-based; settings: A549, 72 h
[2] = system: A549; experiment: Induction of apoptosis in human A549 cells assessed as cell death up to 40 uM after 24 hrs by Annexin V-FITC/propidium iodide staining based flow cytometry; type: functional
[3] = system: A549; experiment: Induction of apoptosis in human A549 cells assessed as increase in apoptotic cells at 80 uM incubated for 24 hrs by Annexin V-FITC/propidium iodide staining based flow cytometry; type: functional, cell-based
[4] = system: A549; experiment: Induction of apoptosis in human A549 cells assessed as necrotic cells up to 80 uM incubated for 24 hrs by Annexin V-FITC/propidium iodide staining based flow cytometry; type: functional, cell-based
[5] = system: A549; experiment: Induction of apoptosis in human A549 cells assessed as caspase-3 p17/19 active fragment generation at 80 uM after 24 hrs by Western blot analysis; type: functional, cell-based
[6] = system: A549; experiment: Induction of apoptosis in human A549 cells assessed as increase in apoptotic cells up to 40 uM incubated for 24 hrs by Annexin V-FITC/propidium iodide staining based flow cytometry; type: functional, cell-based
[7] = system: A549; experiment: Induction of apoptosis in human A549 cells assessed as increase in PARP cleavage at 80 uM after 24 hrs by Western blot analysis; type: functional, cell-based
[8] = molecular target: Tumour suppressor p53/oncoprotein Mdm2 (Homo sapiens) (UniProt P04637+Q00987); experiment: Inhibition of MDM2/P53 interaction in human A549 cells assessed as increase in p53 level at 10 to 20 uM after 24 hrs by Western blot analysis; type: cell-based
Tumour suppressor p53/oncoprotein Mdm2 (Homo sapiens), sequence (P04637 whole entry, looked up): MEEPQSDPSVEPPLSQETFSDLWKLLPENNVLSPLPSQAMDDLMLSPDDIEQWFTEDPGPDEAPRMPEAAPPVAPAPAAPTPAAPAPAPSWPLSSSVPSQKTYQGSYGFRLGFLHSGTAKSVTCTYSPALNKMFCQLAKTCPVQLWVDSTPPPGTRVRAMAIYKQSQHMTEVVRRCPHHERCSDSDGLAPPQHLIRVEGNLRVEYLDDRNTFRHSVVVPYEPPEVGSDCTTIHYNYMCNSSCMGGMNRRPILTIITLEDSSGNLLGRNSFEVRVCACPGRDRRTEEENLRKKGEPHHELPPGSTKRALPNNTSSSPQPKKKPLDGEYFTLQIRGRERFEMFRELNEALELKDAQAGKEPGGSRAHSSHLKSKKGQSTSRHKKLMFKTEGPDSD
Tumour suppressor p53/oncoprotein Mdm2 (Homo sapiens), sequence (Q00987 whole entry, looked up): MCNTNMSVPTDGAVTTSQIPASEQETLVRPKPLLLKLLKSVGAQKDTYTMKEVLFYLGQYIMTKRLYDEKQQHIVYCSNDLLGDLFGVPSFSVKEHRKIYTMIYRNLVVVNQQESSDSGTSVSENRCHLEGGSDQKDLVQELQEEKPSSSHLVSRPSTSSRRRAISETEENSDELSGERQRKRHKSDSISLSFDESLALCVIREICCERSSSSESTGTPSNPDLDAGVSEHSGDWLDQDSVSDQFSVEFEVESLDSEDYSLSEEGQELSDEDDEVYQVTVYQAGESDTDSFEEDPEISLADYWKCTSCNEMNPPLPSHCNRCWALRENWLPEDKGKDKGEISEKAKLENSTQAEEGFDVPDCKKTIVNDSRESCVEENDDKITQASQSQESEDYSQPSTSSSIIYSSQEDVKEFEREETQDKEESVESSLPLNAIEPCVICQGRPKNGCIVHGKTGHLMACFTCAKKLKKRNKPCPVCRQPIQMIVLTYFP

[9] = system: A549; experiment: Cytotoxicity against human A549 cells at 1.56 to 100 uM after 72 hrs by MTT assay; type: functional, cell-based
[10] = system: A549; experiment: Induction of necrosis in human A549 cells at >20 uM after 24 hrs by Annexin V-FITC/propidium iodide staining based flow cytometry; type: functional, cell-based
[11] = system: A549; experiment: Induction of apoptosis in human A549 cells assessed as caspase-3 p17/19 active fragment generation at 40 uM after 24 hrs by Western blot analysis; type: functional, cell-based
[12] = system: A549; experiment: Induction of apoptosis in human A549 cells assessed as increase in necrotic cells at 40 to 80 uM incubated for 24 hrs by Annexin V-FITC/propidium iodide staining based flow cytometry relative to control; type: functional
[13] = system: A549; experiment: Induction of apoptosis in human A549 cells assessed as increase in PARP cleavage at 40 uM after 24 hrs by Western blot analysis; type: functional, cell-based
[14] = system: A549; experiment: Induction of apoptosis in human A549 cells assessed as cell death at 80 uM after 24 hrs by Annexin V-FITC/propidium iodide staining based flow cytometry; type: functional
[15] = Solubility of compound in water; type: physicochemical; settings: buffer

Compound `COc1ccccc1C1=N[C@H](c2ccccc2OC)[C@H](c2ccccc2OC)N1` has an IC50 [1] of 27.4 µM.

In the case of `COc1ccc(C2=N[C@H](c3ccc(OC)cc3OC)[C@H](c3ccc(OC)cc3OC)N2)c(OC)c1`, the Activity [2] is reported as “inactive”, the Activity [3] is reported as “Active” and the Activity [4] is reported as “inactive”. For the same compound, the Activity [5] was “inactive”, the Activity [6] was “inactive” and the Activity [7] was “inactive”. It also gave an IC50 [1] of 9.32 µM.

In the case of `COc1ccc(OC)c(C2=N[C@H](c3cc(OC)ccc3OC)[C@H](c3cc(OC)ccc3OC)N2)c1`, the inhibition [8] is reported as “inactive” and the IC50 [1] is reported as 21.4 µM.

Compound `Oc1ccccc1C1=N[C@H](c2ccccc2O)[C@H](c2ccccc2O)N1` has an IC50 [1] of 311 µM.

For `COc1cc(C2=N[C@H](c3cc(OC)c(OC)c(OC)c3)[C@H](c3cc(OC)c(OC)c(OC)c3)N2)cc(OC)c1OC`, the Activity [9] was “inactive”.

`CCOc1c(OC)cccc1C1=N[C@H](c2cccc(OC)c2OCC)[C@H](c2cccc(OC)c2OCC)N1` showed an IC50 [1] of 24.3 µM.

Compound `Fc1ccc(C2=N[C@H](c3ccc(F)cc3)[C@H](c3ccc(F)cc3)N2)cc1` has an IC50 [1] of 108 µM.

For `Clc1ccc(C2=N[C@H](c3ccc(Cl)cc3)[C@H](c3ccc(Cl)cc3)N2)cc1`, the Activity [10] was “Active”, the Activity [11] was “Active” and the Activity [4] was “Active”. The Activity [12] was “<=70%”, the Activity [13] was “Active” and the IC50 [1] was 20.2 µM. For the same compound, the Activity [14] was “Active”.

With `Clc1ccc(C2=N[C@H](c3ccc(Cl)cc3Cl)[C@H](c3ccc(Cl)cc3Cl)N2)c(Cl)c1` the IC50 [1] was 164 µM.

In the case of `CCOc1ccc(C2=N[C@H](c3ccc(OCC)c(OC)c3)[C@H](c3ccc(OCC)c(OC)c3)N2)cc1OC`, the IC50 [1] is reported as 67.5 µM.

Compound `COc1cccc(C2=N[C@H](c3cccc(OC)c3)[C@H](c3cccc(OC)c3)N2)c1` has an IC50 [1] of 64.3 µM.

For `COc1cccc(C2=N[C@H](c3cccc(OC)c3OC)[C@H](c3cccc(OC)c3OC)N2)c1OC`, the inhibition [8] was “inactive” and the IC50 [1] was 16.2 µM.

Compound `Clc1ccc(C2=N[C@H](c3ccc(Cl)c(Cl)c3)[C@H](c3ccc(Cl)c(Cl)c3)N2)cc1Cl` has an IC50 [1] of 13.7 µM.

Compound `COc1ccc(C2=N[C@H](c3ccc(OC)c(OC)c3)[C@H](c3ccc(OC)c(OC)c3)N2)cc1OC` has an IC50 [1] of 84.7 µM.

With `COc1ccc(C2=N[C@H](c3ccc(O)cc3)[C@H](c3ccc(O)cc3)N2)cc1` the Activity [9] was “inactive”.

In the case of `Oc1ccc(C2=N[C@H](c3ccc(O)cc3)[C@H](c3ccc(O)cc3)N2)cc1`, the Activity [9] is reported as “inactive”.

With `COc1ccc(C2=N[C@H](c3ccc(OC)cc3)[C@H](c3ccc(OC)cc3)N2)cc1` the Activity [2] was “inactive”, the Activity [3] was “Active” and the Activity [4] was “inactive”. For the same compound, the Activity [5] was “inactive”, the Activity [6] was “inactive” and the Activity [7] was “inactive”. For the same compound, the IC50 [1] was 43.9 µM.

For `Oc1ccc(O)c(C2=N[C@H](c3cc(O)ccc3O)[C@H](c3cc(O)ccc3O)N2)c1`, the Activity [9] was “inactive”.

With `CCOc1ccc(C2=N[C@H](c3ccc(OCC)cc3)[C@H](c3ccc(OCC)cc3)N2)cc1` the Activity [10] was “Active”, the Activity [11] was “Active” and the Activity [4] was “Active”. The Activity [12] was “<=70%”, the Activity [13] was “Active” and the IC50 [1] was 13.3 µM. For the same compound, the Activity [14] was “Active”.

In the case of `Brc1ccc(C2=N[C@H](c3ccc(Br)cc3)[C@H](c3ccc(Br)cc3)N2)cc1`, the solubility [15] is reported as “Insoluble” and the IC50 [1] is reported as 9.05 µM.

In the case of `Clc1ccccc1C1=N[C@H](c2ccccc2Cl)[C@H](c2ccccc2Cl)N1`, the solubility [15] is reported as “Insoluble” and the IC50 [1] is reported as 10.7 µM.
